According to PubChem BioAssay (NCI):
Several values for one entry are separate records, joined by “and”; a condition that tells them apart may be missing. Equal entries are not always repeated.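 48-hour exposure; five concentrations; linearly interpolated endpoints. Here, GI50 denotes the concentration required for 50% inhibition of growth. TGI: concentration producing complete growth inhibition.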

How the values were obtained:
Test in all cases: NCI-60 cell line screen, 48 h
[1] = system: SK-MEL-28 melanoma
[2] = system: OVCAR-5 ovarian
[3] = system: HOP-18 NSCLC
[4] = system: SF-268 CNS
[5] = system: M19-MEL melanoma
[6] = system: MALME-3M melanoma
[7] = system: RXF 393 renal
[8] = system: LOX IMVI melanoma
[9] = system: DMS 114 small cell lung
[10] = system: HS 578T breast
[11] = system: MDA-MB-435

Structure (SMILES) | TGI [1] | TGI [2] | TGI [3] [µM] | TGI [4] | TGI [5] [µM] | TGI [6] | TGI [7] | TGI [8] | TGI [9] [µM] | GI50 [10] | TGI [10] | GI50 [1] | GI50 [2] | GI50 [4] | GI50 [11] | TGI [11] | GI50 [6] | GI50 [7] | GI50 [8]
N#CCCN(CCC#N)c1ccc(/C=C(/NC(=O)c2cc([N+](=O)[O-])ccc2Cl)C(=O)NN)cc1 | > 100 µM | > 100 µM | > 100 | > 100 µM | > 100 | > 100 µM | > 100 µM | > 100 µM | – | – | – | – | – | – | – | – | – | – | –
COc1ccc(Nc2nc3cc(C(F)(F)F)ccc3nc2-c2ccccc2)cc1OC | 63.8 µM | > 100 µM | – | > 100 µM | – | 85.8 µM | 35.9 µM | > 100 µM | 41.4 | – | – | – | – | – | – | – | – | – | –
[O-]/N=[N+](/[O-])C1CCCCC1=[N+]1CCOCC1 (stereo not given) | > 100 µM | > 100 µM | – | > 100 µM | > 100 | > 100 µM | – | – | > 100 | – | – | – | – | – | – | – | – | – | –
N/C=N/S(=O)(=O)c1ccc(NC(=O)COC(=O)c2cccc3c(=O)c4ccccc4[nH]c23)cc1 | > 100 µM | – | > 100 | – | > 100 | > 100 µM | > 100 µM | > 100 µM | > 100 | – | – | – | – | – | – | – | – | – | –
O=C(O)CN(c1ccccc1)S(=O)(=O)c1cccc([N+](=O)[O-])c1 | > 100 µM | > 100 µM | > 100 | > 100 µM | > 100 | > 100 µM | > 100 µM | > 100 µM | – | – | – | – | – | – | – | – | – | – | –
O=C1Nc2ccccc2/C1=C\c1c(-c2ccccc2)nc2sccn12 | 44.9 µM | 11.9 µM | – | 57.1 µM | – | 21.7 µM | 26.6 µM | 13.8 µM | – | 5.58 µM | 18.7 µM | 8.98 µM | 2.7 µM | 5.86 µM | 0.354 µM | 0.943 µM | 1.92 µM | 3.35 µM | 2.09 µM
Cc1cc(Cl)nc2ccc(Cc3ccc4nc(Cl)cc(C)c4c3)cc12 | > 100 µM | > 100 µM | – | > 100 µM | – | > 100 µM | 27.6 µM | > 100 µM | – | – | > 100 µM | – | – | – | – | > 100 µM | – | – | –
CCc1ccccc1NC(=O)C(C#N)C1=C(Cl)C(=O)c2ccccc2C1=O (stereo not given) | 36.4 µM | 35.2 µM | – | 49.8 µM | – | 19.5 µM | 43.1 µM | 26.9 µM | – | – | 60.6 µM | – | – | – | – | 63 µM | – | – | –
O=C(COc1ccccc1Cl)N1N=C(c2ccccc2)CC1(O)c1ccccc1 (stereo not given) | 31.7 µM | 33.5 µM | – | > 100 µM | 41.6 | 31.7 µM | – | 30.4 µM | – | – | – | – | – | – | – | – | – | – | –
Cc1ccc(F)c(NC(=O)Nc2ccc(-c3cccc4[nH]nc(N)c34)cc2)c1 | 18.7 µM and > 10 µM | 9.11 µM and > 10 µM | – | 11.2 µM and > 10 µM | – | 16.4 µM and 7.36 µM | 4.34 µM and 4.96 µM | 3.62 µM and 4.97 µM | – | 2.5 µM and 2.91 µM | 12.6 µM and > 10 µM | 3.94 µM and 3.85 µM | 2.74 µM and 3.42 µM | 2.92 µM and 3.25 µM | 2.68 µM and 2.88 µM | 11 µM and > 10 µM | 4.24 µM and 2.64 µM | 1.96 µM and 1.92 µM | 1.8 µM and 2.03 µM
Cc1ccccc1C1=C(c2cn(C)c3ccccc23)C(=O)NC1=O | > 25 µM | > 25 µM | – | > 25 µM | – | > 25 µM | > 25 µM | > 25 µM | – | 10 µM | > 25 µM | > 25 µM | > 23.6 µM | > 25 µM | > 21.5 µM | > 25 µM | 23.9 µM | 7.02 µM | 14.9 µM
CS(=O)(=O)N1CCC(n2c(=O)c(Oc3ccc(F)cc3F)cc3cnc(NC4CCOCC4)nc32)CC1 | > 25 µM | > 25 µM | – | > 25 µM | – | > 25 µM | > 25 µM | > 25 µM | – | > 11.6 µM | > 25 µM | > 25 µM | > 25 µM | > 25 µM | > 25 µM | > 25 µM | > 25 µM | 6.88 µM | > 25 µM
O=C([O][Hg][c]1ccccc1)c1ccccc1 | 2.93 µM | 5.56 µM | – | 4.78 µM | – | 3.39 µM | 2.56 µM | 3.05 µM | – | 1.1 µM | 5.87 µM | 1.45 µM | 2.48 µM | 1.89 µM | 1.55 µM | 3.1 µM | 1.77 µM | 1.24 µM | 1.38 µM
COc1ccc(/C=C/C(=O)c2c(O)ccc3c(C)c(C(=O)O)oc23)cc1 | > 100 µM | > 100 µM | – | > 100 µM | – | > 100 µM | > 100 µM | > 100 µM | – | 39.7 µM | > 100 µM | > 100 µM | > 100 µM | 42.3 µM | 50.5 µM | > 100 µM | 94.6 µM | 55.5 µM | 35.6 µM
CCN1CCC(CC(=O)Nc2n[nH]c3nnc(-c4cccc(F)c4F)cc23)CC1 | > 25 µM | > 25 µM | – | > 25 µM | – | > 25 µM | > 25 µM | > 25 µM | – | > 19.9 µM | > 25 µM | > 25 µM | > 25 µM | > 25 µM | > 25 µM | > 25 µM | > 25 µM | 5.56 µM | > 25 µM
